Test results: patent US6706663B2, “Herbicidal 3-heterocyclic substituted benzisothiazole and benzisoxazole compounds” (Wyeth, priority 2000, dated 2004)

What was measured:
[1] = tested on: ABUTH (Abutilon theophrasti); test: Postemergence herbicidal evaluation; assay type: in vivo, Medic.; details: postemergence
In short: (§1)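 Seedlings grown for about two weeks were sprayed postemergence and then kept under standard greenhouse care. Injury was rated visually 4–5 weeks after treatment on a 0–9 scale against untreated controls, and ratings from repeat tests were averaged.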

ORYSAT (Rice, Tebonnet) [2] = test: Preemergence herbicidal evaluation; assay type: in vivo, Oryza sativa, (L.) Tebonnet; details: rated 4-5 weeks after treatment
[3] = tested on: TRZAWR (Wheat, Winter, cv Riband); test: Postemergence herbicidal evaluation; assay type: in vivo, Triticum aestivum; details: postemergence
In short: as §1

[4] = tested on: CHEAL (Chenopodium album); test: Preemergence herbicidal evaluation; assay type: in vivo, L.; details: rated 4-5 weeks after treatment
In short: (§2)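 Seeds mixed with potting soil were planted atop about one inch of soil, then sprayed with test compound in aqueous acetone. Cups were kept in the greenhouse and rated visually 4–5 weeks after treatment on a 0–9 scale against untreated control.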

[5] = tested on: CASOB (Cassia obtusifolia); test: Preemergence herbicidal evaluation; assay type: in vivo, L.; details: rated 4-5 weeks after treatment
In short: as §2

[6] = tested on: AMBEL (Ambrosia artemisifolia); test: Preemergence herbicidal evaluation; assay type: in vivo, L.; details: rated 4-5 weeks after treatment
In short: as §2

ORYSAT (Rice, Tebonnet) [7] = test: Postemergence herbicidal evaluation; assay type: in vivo, Oryza sativa, (L.) Tebonnet; details: postemergence
In short: as §1

CYPIR (Cyperus iria) = test: Flooded paddy, preemergence weed control; assay type: in vivo; details: rated 3-4 weeks after treatment, 0-9 rating scale
In short: (§3)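 Under paddy conditions, seeds or vegetative propagules go into the top 0.5 cm of silt loam; the soil is then flooded to 1.5–3 cm and kept so. Treated pots stay in a greenhouse; response is rated 0-9 visually versus control.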

[8] = tested on: CHEAL (Chenopodium album); test: Postemergence herbicidal evaluation; assay type: in vivo, L.; details: postemergence
In short: as §1

[9] = tested on: CASOB (Cassia obtusifolia); test: Postemergence herbicidal evaluation; assay type: in vivo, L.; details: postemergence
In short: as §1

[10] = tested on: AMBEL (Ambrosia artemisifolia); test: Postemergence herbicidal evaluation; assay type: in vivo, L.; details: postemergence
In short: as §1

[11] = tested on: IPOHE (Ipomoea hederacea); test: Postemergence herbicidal evaluation; assay type: in vivo, (L.) Jacq.; details: postemergence
In short: as §1

[12] = tested on: SAGPY (Sagittaria pygmaea); test: Flooded paddy, preemergence weed control; assay type: in vivo, L.; details: rated 3-4 weeks after treatment, 0-9 rating scale
In short: as §3

[13] = tested on: CYPSE (Cyperus serotinus); test: Flooded paddy, preemergence weed control; assay type: in vivo, Rottb.; details: rated 3-4 weeks after treatment, 0-9 rating scale
In short: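 Seeds or propagules were planted 0.5 cm deep in silt loam and flooded to 1.5–3 cm. Compounds in 50/50 v/v aqueous/acetone were pipetted into the flood water at about 0.0080 to 0.1250 kg/ha. After 3–4 weeks in the greenhouse, effect was rated visually on a 0–9 scale versus untreated control.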

GALAP (Galium aparine) = test: Postemergence herbicidal evaluation; assay type: in vivo; details: postemergence
In short: as §1

[14] = tested on: ECHCG (Echinochloa crus-galli); test: Preemergence herbicidal evaluation; assay type: in vivo, (L.) Beau; details: rated 4-5 weeks after treatment
In short: as §2

SETVI (Setaria viridis) [15] = test: Preemergence herbicidal evaluation; assay type: in vivo, (L.) Beau; details: rated 4-5 weeks after treatment
In short: as §2

[16] = tested on: MOOVA (Monochoria vaginalis); test: Flooded paddy, preemergence weed control; assay type: in vivo, Presl.; details: rated 3-4 weeks after treatment, 0-9 rating scale
In short: as §3

SETVI (Setaria viridis) [17] = test: Postemergence herbicidal evaluation; assay type: in vivo, (L.) Beau; details: postemergence
In short: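 Ratings use a 0-9 visual scale covering stand, vigor, malformation, size, chlorosis and appearance versus a control, scored 4-5 weeks post-spray. Roughly two-week-old seedlings received about 0.0040-1.000 kg/ha active, applied in 50/50 acetone/water with 0.5% TWEEN 20. Multiple tests per compound were averaged.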

Cc1nn(-c2nsc3ccc(-n4c(=O)cc(C(F)(F)F)n(C)c4=O)cc23)c(C)c1C [Compound 49, 1-methyl-6-(trifluoromethyl)-3-[3-(3,4,5-trimethylpyrazol-1-yl)-1,2-benzisothiazol-5-yl]uracil]
5.0: IPOHE herbicidal rating ([11]; rate 0.0320 kg/ha)
8.0: IPOHE herbicidal rating ([11]; rate 0.0620 kg/ha)
0.0: ABUTH herbicidal rating ([1]; rate 0.0320 kg/ha) | ABUTH herbicidal rating ([1]; rate 0.0620 kg/ha) | Preemergence herbicidal rating ORYSAT (ORYSAT (Rice, Tebonnet) [2]; Rate 0.0620 kg/ha) | Preemergence herbicidal rating ORYSAT (ORYSAT (Rice, Tebonnet) [2]; Rate 0.1250 kg/ha) | Preemergence herbicidal rating ORYSAT (ORYSAT (Rice, Tebonnet) [2]; Rate 0.2500 kg/ha) | Preemergence herbicidal rating CHEAL ([4]; Rate 0.0620 kg/ha) | Preemergence herbicidal rating CHEAL ([4]; Rate 0.1250 kg/ha) | Preemergence herbicidal rating CHEAL ([4]; Rate 0.2500 kg/ha) | Preemergence herbicidal rating CASOB ([5]; Rate 0.0620 kg/ha) | Preemergence herbicidal rating CASOB ([5]; Rate 0.1250 kg/ha) | Preemergence herbicidal rating CASOB ([5]; Rate 0.2500 kg/ha) | Preemergence herbicidal rating AMBEL ([6]; Rate 0.0620 kg/ha) | Preemergence herbicidal rating AMBEL ([6]; Rate 0.1250 kg/ha) | Preemergence herbicidal rating AMBEL ([6]; Rate 0.2500 kg/ha) | herbicidal rating, CYPIR (CYPIR (Cyperus iria); rate 0.0320 kg/ha) | herbicidal rating, CYPIR (CYPIR (Cyperus iria); rate 0.1250 kg/ha) | CHEAL herbicidal rating ([8]; rate 0.0320 kg/ha) | CHEAL herbicidal rating ([8]; rate 0.0620 kg/ha) | CASOB herbicidal rating ([9]; rate 0.0320 kg/ha) | CASOB herbicidal rating ([9]; rate 0.0620 kg/ha) | AMBEL herbicidal rating ([10]; rate 0.0320 kg/ha) | AMBEL herbicidal rating ([10]; rate 0.0620 kg/ha) | herbicidal rating, SAGPY ([12]; rate 0.0320 kg/ha) | herbicidal rating, SAGPY ([12]; rate 0.1250 kg/ha) | herbicidal rating, CYPSE ([13]; rate 0.0320 kg/ha) | herbicidal rating, CYPSE ([13]; rate 0.1250 kg/ha) | GALAP herbicidal rating (GALAP (Galium aparine); rate 0.0320 kg/ha) | GALAP herbicidal rating (GALAP (Galium aparine); rate 0.0620 kg/ha) | Preemergence herbicidal rating ECHCG ([14]; Rate 0.0620 kg/ha) | Preemergence herbicidal rating ECHCG ([14]; Rate 0.1250 kg/ha) | Preemergence herbicidal rating ECHCG ([14]; Rate 0.2500 kg/ha) | Preemergence herbicidal rating SETVI (SETVI (Setaria viridis) [15]; Rate 0.0620 kg/ha) | Preemergence herbicidal rating SETVI (SETVI (Setaria viridis) [15]; Rate 0.1250 kg/ha) | Preemergence herbicidal rating SETVI (SETVI (Setaria viridis) [15]; Rate 0.2500 kg/ha) | herbicidal rating, MOOVA ([16]; rate 0.0320 kg/ha) | SETVI herbicidal rating (SETVI (Setaria viridis) [17]; rate 0.0320 kg/ha) | SETVI herbicidal rating (SETVI (Setaria viridis) [17]; rate 0.0620 kg/ha)
0.5: TRZAWR herbicidal rating ([3]; rate 0.0320 kg/ha) | ORYSAT herbicidal rating (ORYSAT (Rice, Tebonnet) [7]; rate 0.0320 kg/ha)
1.5: TRZAWR herbicidal rating ([3]; rate 0.0620 kg/ha) | ORYSAT herbicidal rating (ORYSAT (Rice, Tebonnet) [7]; rate 0.0620 kg/ha)

C[C@@H]1C[C@H](C)OC(c2nsc3ccc(-n4c(=O)cc(C(F)(F)F)n(C)c4=O)cc23)O1 (stereo partly drawn) [Compound 50, 3-[3-[(4R,6S)-4,6-dimethyl-m-dioxan-2-yl]-1,2-benzisothiazol-5-yl]-1-methyl-6-(trifluoromethyl)uracil]
7.5: herbicidal rating, CYPIR (CYPIR (Cyperus iria); rate 0.0320 kg/ha)
8.5: Preemergence herbicidal rating ORYSAT (ORYSAT (Rice, Tebonnet) [2]; Rate 0.1250 kg/ha)
3.0: GALAP herbicidal rating (GALAP (Galium aparine); rate 0.0320 kg/ha)
6.5: Preemergence herbicidal rating ORYSAT (ORYSAT (Rice, Tebonnet) [2]; Rate 0.0620 kg/ha) | Preemergence herbicidal rating CASOB ([5]; Rate 0.1250 kg/ha)
4.5: TRZAWR herbicidal rating ([3]; rate 0.0320 kg/ha) | TRZAWR herbicidal rating ([3]; rate 0.0620 kg/ha) | ORYSAT herbicidal rating (ORYSAT (Rice, Tebonnet) [7]; rate 0.0620 kg/ha) | herbicidal rating, SAGPY ([12]; rate 0.1250 kg/ha)
9.0: ABUTH herbicidal rating ([1]; rate 0.0320 kg/ha) | ABUTH herbicidal rating ([1]; rate 0.0620 kg/ha) | Preemergence herbicidal rating ORYSAT (ORYSAT (Rice, Tebonnet) [2]; Rate 0.2500 kg/ha) | Preemergence herbicidal rating CHEAL ([4]; Rate 0.0620 kg/ha) | Preemergence herbicidal rating CHEAL ([4]; Rate 0.1250 kg/ha) | Preemergence herbicidal rating CHEAL ([4]; Rate 0.2500 kg/ha) | Preemergence herbicidal rating CASOB ([5]; Rate 0.2500 kg/ha) | Preemergence herbicidal rating AMBEL ([6]; Rate 0.0620 kg/ha) | Preemergence herbicidal rating AMBEL ([6]; Rate 0.1250 kg/ha) | Preemergence herbicidal rating AMBEL ([6]; Rate 0.2500 kg/ha) | CHEAL herbicidal rating ([8]; rate 0.0620 kg/ha) | AMBEL herbicidal rating ([10]; rate 0.0320 kg/ha) | AMBEL herbicidal rating ([10]; rate 0.0620 kg/ha) | IPOHE herbicidal rating ([11]; rate 0.0320 kg/ha) | IPOHE herbicidal rating ([11]; rate 0.0620 kg/ha) | Preemergence herbicidal rating ECHCG ([14]; Rate 0.0620 kg/ha) | Preemergence herbicidal rating ECHCG ([14]; Rate 0.1250 kg/ha) | Preemergence herbicidal rating ECHCG ([14]; Rate 0.2500 kg/ha) | Preemergence herbicidal rating SETVI (SETVI (Setaria viridis) [15]; Rate 0.0620 kg/ha) | Preemergence herbicidal rating SETVI (SETVI (Setaria viridis) [15]; Rate 0.1250 kg/ha) | Preemergence herbicidal rating SETVI (SETVI (Setaria viridis) [15]; Rate 0.2500 kg/ha) | herbicidal rating, MOOVA ([16]; rate 0.0320 kg/ha) | herbicidal rating, MOOVA ([16]; rate 0.1250 kg/ha) | SETVI herbicidal rating (SETVI (Setaria viridis) [17]; rate 0.0320 kg/ha) | SETVI herbicidal rating (SETVI (Setaria viridis) [17]; rate 0.0620 kg/ha)
5.5: Preemergence herbicidal rating CASOB ([5]; Rate 0.0620 kg/ha) | ORYSAT herbicidal rating (ORYSAT (Rice, Tebonnet) [7]; rate 0.0320 kg/ha)
7.0: herbicidal rating, CYPSE ([13]; rate 0.1250 kg/ha)
8.0: herbicidal rating, CYPIR (CYPIR (Cyperus iria); rate 0.1250 kg/ha) | CHEAL herbicidal rating ([8]; rate 0.0320 kg/ha) | GALAP herbicidal rating (GALAP (Galium aparine); rate 0.0620 kg/ha)
0.0: herbicidal rating, CYPIR (CYPIR (Cyperus iria); rate 0.0080 kg/ha) | herbicidal rating, SAGPY ([12]; rate 0.0080 kg/ha) | herbicidal rating, SAGPY ([12]; rate 0.0320 kg/ha)
5.0: CASOB herbicidal rating ([9]; rate 0.0320 kg/ha) | CASOB herbicidal rating ([9]; rate 0.0620 kg/ha) | herbicidal rating, CYPSE ([13]; rate 0.0320 kg/ha)
